The target of data set [1] is T1, Pancreatic triacylglycerol lipase (Sus scrofa, UniProt P00591).
T1 sequence (P00591 whole entry): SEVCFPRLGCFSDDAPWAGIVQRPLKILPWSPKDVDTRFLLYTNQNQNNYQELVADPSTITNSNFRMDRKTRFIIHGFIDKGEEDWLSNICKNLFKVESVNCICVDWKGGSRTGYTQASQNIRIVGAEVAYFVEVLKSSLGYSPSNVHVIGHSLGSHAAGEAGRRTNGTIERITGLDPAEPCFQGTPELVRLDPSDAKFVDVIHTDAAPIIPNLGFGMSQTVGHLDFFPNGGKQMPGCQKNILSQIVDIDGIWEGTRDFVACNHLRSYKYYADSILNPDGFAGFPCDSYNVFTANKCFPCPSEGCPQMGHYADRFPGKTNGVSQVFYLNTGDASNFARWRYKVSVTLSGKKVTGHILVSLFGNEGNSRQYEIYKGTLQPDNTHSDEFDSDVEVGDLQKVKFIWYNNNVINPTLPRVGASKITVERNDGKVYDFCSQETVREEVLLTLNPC
Briefly: (§1) Inhibition of pig pancreatic lipase assessed as hydrolysis of p-nitrophenylbutyrate to p-nitrophenol.

Data set [2] has as its system 3T3-L1. Description: Cytotoxicity against mouse 3T3L1 cells assessed as cell viability at 0.02 to 20 uM by MTT assay. It counts as cell-based. The note with it: 3t3-l1, 20 µM. A general note: Formazan colour is commonly taken as a measure of viable cells.
Data set [3] deals with T2, Pancreatic triacylglycerol lipase (Sus scrofa) (UniProt P00591).
T2 sequence (whole entry): T1 sequence (P00591 whole entry)
The description is as §1.

For data set [4], the system named is 3T3-L1. Briefly: Antiadipogenic activity against mouse 3T3L1 cells assessed as inhibition of lipid deposition at 2 uM by Oil Red O staining. The format is functional.
Data set [5] relates to 3T3-L1. Description: Cytotoxicity against mouse 3T3L1 cells assessed as cell viability upto 2 uM by MTT assay. The format is cell-based.

SMILES strings stand for the structures.

The results in this text go back to ChEMBL document CHEMBL2331159, “Radiolytic transformation of rotenone with potential anti-adipogenic activity” (Bioorg Med Chem Lett, 2013).

Usually IC50 stands for the point on the concentration scale where inhibition reaches its midpoint. As to `C=C(C)[C@H]1Cc2c(ccc3c2O[C@@H]2COc4cc(OC)c(OC)cc4[C@@H]2C3=O)O1` (stereo in doubt) [ROTENONE], in data set [1], the IC50 is 79.1 µM.

Regarding `C=C(C)[C@H]1Cc2c(ccc3c2O[C@@H]2COc4cc(OC)c(OC)cc4[C@@H]2C3=O)O1` (stereo in doubt; 1) [ROTENONE], in the data set with 3T3-L1 [2], the Activity result was “Toxic”. Moreover, the IC50 in data set [1] is greater than 500 µM.

A word on the inhibition: it is the relative decrease from the control value, in per cent. Turning to `C=C(C)[C@H]1Cc2c(ccc3c2O[C@@H]2COc4cc(OC)c(OC)cc4[C@@H]2[C@@]32CO2)O1` [ROTENOISIN A], the IC50 in data set [1] is 6.3 µM. Moreover, the inhibition result in data set [3] is “Dose-dependent effect”. Further, the inhibition at 2 µM in the data set on 3T3-L1 [4] came out at 70%. Moreover, the Activity result with 3T3-L1 [5] is given as “Non-toxic”.

In the case of `C=C(C)[C@H]1Cc2c(ccc3c2O[C@@H]2COc4cc(OC)c(OC)cc4[C@@H]2[C@]32C[C@H]3O[C@@]3(O)[C@H](O)O2)O1` [ROTENOISIN B], in data set [1], the IC50 was determined as 28.4 µM. For the same compound, the inhibition at 2 µM in the data set on 3T3-L1 [4] was determined as 70%. In addition, in the data set with 3T3-L1 [5], the Activity result is “Non-toxic”.
